Reference: the supplement of paper PMC11451515

What was measured:
Conditions in all cases: 48 h
NOMO1 [1] = experiment: cell viability relative to DMSO control; higher = less cytotoxic
Method in brief: (§1)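 NOMO1 or SEM (500 cells/well) or P12-Ichikawa (1000 cells/well) leukemia cells were adapted for at least four passages in each medium. They were seeded in 1536-well plates (5 μl) and pin-dosed with library compounds in DMSO over an 11-point threefold series, 47 μM to 0.79 nM. CellTiter-Glo One luminescence was read after 48 h at 37°C. Viability is the per-plate percentage relative to DMSO wells, with cell-free wells as background.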

P12-Ichikawa [2] = experiment: as above
Method in brief: as §1

SEM cells [3] = experiment: as above
Method in brief: as §1

NOMO1 [4] = experiment: AUC of viability dose-response curve (% viability x log10 dose units); higher = less sensitive
Method in brief: (§2)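 Leukemia cells adapted to each medium (500 or 1000 cells/well, 1536-well plates) were exposed to library compounds in DMSO for 48 h at 37°C at 11 threefold doses, 47 μM to 0.79 nM. Luminescence by CellTiter-Glo One was normalised per plate to DMSO and cell-free wells, then fitted with a four-parameter log-logistic curve on log10 dose. Curves above full viability were scaled and quality-control failures removed before area under the curve was integrated by trapezoidal rule.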

P12-Ichikawa [5] = experiment: as above
Method in brief: as §2

SEM cells [6] = experiment: as above
Method in brief: as §2

CC(=O)N[C@@H]1[C@@H](NC(N)=N)\C=C(/O[C@H]1[C@H](O)[C@H](O)CO)C(O)=O
cell viability [%]
Conditions	NOMO1 [1]	P12-Ichikawa [2]	SEM cells [3]
HPLM + 10% dialyzed FBS, 0.000781 µM	84.9	92.9	78.4
HPLM + 10% dialyzed FBS, 0.00234 µM	105	103	89.6
HPLM + 10% dialyzed FBS, 0.00702 µM	116	106	98.1
HPLM + 10% dialyzed FBS, 0.0211 µM	119	106	107
HPLM + 10% dialyzed FBS, 0.0632 µM	127	116	107
HPLM + 10% dialyzed FBS, 0.19 µM	119	116	123
HPLM + 10% dialyzed FBS, 0.569 µM	122	117	40.2
HPLM + 10% dialyzed FBS, 1.71 µM	120	112	106
HPLM + 10% dialyzed FBS, 5.12 µM	122	112	112
HPLM + 10% dialyzed FBS, 15.4 µM	115	114	98.6
HPLM + 10% dialyzed FBS, 46.1 µM	101	113	95.4
RPMI 5 mM glucose + 10% FBS, 0.000781 µM	102	93.9	80.1
RPMI 5 mM glucose + 10% FBS, 0.00234 µM	114	108	90.1
RPMI 5 mM glucose + 10% FBS, 0.00702 µM	106	109	125
RPMI 5 mM glucose + 10% FBS, 0.0211 µM	111	113	98.6
RPMI 5 mM glucose + 10% FBS, 0.0632 µM	113	123	89
RPMI 5 mM glucose + 10% FBS, 0.19 µM	113	112	129
RPMI 5 mM glucose + 10% FBS, 0.569 µM	118	105	49.5
RPMI 5 mM glucose + 10% FBS, 1.71 µM	120	113	128
RPMI 5 mM glucose + 10% FBS, 5.12 µM	111	117	136
RPMI 5 mM glucose + 10% FBS, 15.4 µM	121	70.2	119
RPMI 5 mM glucose + 10% FBS, 46.1 µM	113	118	110
RPMI 5 mM glucose + 10% dialyzed FBS, 0.000781 µM	100	88.9	64.5
RPMI 5 mM glucose + 10% dialyzed FBS, 0.00234 µM	106	107	82.9
RPMI 5 mM glucose + 10% dialyzed FBS, 0.00702 µM	114	109	117
RPMI 5 mM glucose + 10% dialyzed FBS, 0.0211 µM	121	109	102
RPMI 5 mM glucose + 10% dialyzed FBS, 0.0632 µM	117	113	126
RPMI 5 mM glucose + 10% dialyzed FBS, 0.19 µM	118	107	122
RPMI 5 mM glucose + 10% dialyzed FBS, 0.569 µM	115	108	38.4
RPMI 5 mM glucose + 10% dialyzed FBS, 1.71 µM	116	112	120
RPMI 5 mM glucose + 10% dialyzed FBS, 5.12 µM	106	115	121
RPMI 5 mM glucose + 10% dialyzed FBS, 15.4 µM	134	112	110
RPMI 5 mM glucose + 10% dialyzed FBS, 46.1 µM	124	100	113

AUC of viability dose-response curve
Conditions	NOMO1 [4]	P12-Ichikawa [5]	SEM cells [6]
HPLM + 10% dialyzed FBS	464	461	457
RPMI 5 mM glucose + 10% FBS	463	466	421
RPMI 5 mM glucose + 10% dialyzed FBS	443	471	419

CN1CCN(c2c(F)cc3c(=O)c(C(=O)O)cn(CCF)c3c2F)CC1
cell viability [%]
Conditions	NOMO1 [1]	P12-Ichikawa [2]	SEM cells [3]
HPLM + 10% dialyzed FBS, 0.000781 µM	97.8	99.8	84.2
HPLM + 10% dialyzed FBS, 0.00234 µM	107	101	85.3
HPLM + 10% dialyzed FBS, 0.00702 µM	114	106	103
HPLM + 10% dialyzed FBS, 0.0211 µM	119	112	118
HPLM + 10% dialyzed FBS, 0.0632 µM	101	112	108
HPLM + 10% dialyzed FBS, 0.19 µM	116	111	105
HPLM + 10% dialyzed FBS, 0.569 µM	106	111	100
HPLM + 10% dialyzed FBS, 1.71 µM	124	115	109
HPLM + 10% dialyzed FBS, 5.12 µM	105	121	109
HPLM + 10% dialyzed FBS, 15.4 µM	125	120	105
HPLM + 10% dialyzed FBS, 46.1 µM	96.9	108	110
RPMI 5 mM glucose + 10% FBS, 0.000781 µM	101	101	96.4
RPMI 5 mM glucose + 10% FBS, 0.00234 µM	103	104	96.4
RPMI 5 mM glucose + 10% FBS, 0.00702 µM	108	95.5	108
RPMI 5 mM glucose + 10% FBS, 0.0211 µM	109	108	105
RPMI 5 mM glucose + 10% FBS, 0.0632 µM	122	109	110
RPMI 5 mM glucose + 10% FBS, 0.19 µM	106	121	104
RPMI 5 mM glucose + 10% FBS, 0.569 µM	104	107	116
RPMI 5 mM glucose + 10% FBS, 1.71 µM	116	108	111
RPMI 5 mM glucose + 10% FBS, 5.12 µM	120	103	125
RPMI 5 mM glucose + 10% FBS, 15.4 µM	114	112	118
RPMI 5 mM glucose + 10% FBS, 46.1 µM	119	111	101
RPMI 5 mM glucose + 10% dialyzed FBS, 0.000781 µM	93.3	95.9	105
RPMI 5 mM glucose + 10% dialyzed FBS, 0.00234 µM	93.2	104	92.6
RPMI 5 mM glucose + 10% dialyzed FBS, 0.00702 µM	97.6	110	123
RPMI 5 mM glucose + 10% dialyzed FBS, 0.0211 µM	109	107	113
RPMI 5 mM glucose + 10% dialyzed FBS, 0.0632 µM	106	110	111
RPMI 5 mM glucose + 10% dialyzed FBS, 0.19 µM	108	107	112
RPMI 5 mM glucose + 10% dialyzed FBS, 0.569 µM	115	110	117
RPMI 5 mM glucose + 10% dialyzed FBS, 1.71 µM	111	108	129
RPMI 5 mM glucose + 10% dialyzed FBS, 5.12 µM	118	119	111
RPMI 5 mM glucose + 10% dialyzed FBS, 15.4 µM	102	115	114
RPMI 5 mM glucose + 10% dialyzed FBS, 46.1 µM	104	116	118

AUC of viability dose-response curve
Conditions	NOMO1 [4]	P12-Ichikawa [5]	SEM cells [6]
HPLM + 10% dialyzed FBS	466	459	439
RPMI 5 mM glucose + 10% FBS	447	457	458
RPMI 5 mM glucose + 10% dialyzed FBS	461	445	466

COC(=O)Nc1nc2cc(C(=O)c3ccc(F)cc3)ccc2[nH]1
cell viability [%]
Conditions	NOMO1 [1]	P12-Ichikawa [2]	SEM cells [3]
HPLM + 10% dialyzed FBS, 0.000781 µM	103	106	103
HPLM + 10% dialyzed FBS, 0.00234 µM	113	106	95.4
HPLM + 10% dialyzed FBS, 0.00702 µM	102	100	102
HPLM + 10% dialyzed FBS, 0.0211 µM	104	106	91.1
HPLM + 10% dialyzed FBS, 0.0632 µM	102	101	98.6
HPLM + 10% dialyzed FBS, 0.19 µM	103	104	97.9
HPLM + 10% dialyzed FBS, 0.569 µM	84.7	78.2	51.3
HPLM + 10% dialyzed FBS, 1.71 µM	54.9	42.1	40.1
HPLM + 10% dialyzed FBS, 5.12 µM	32.9	23	33.2
HPLM + 10% dialyzed FBS, 15.4 µM	52.2	60.6	26.2
HPLM + 10% dialyzed FBS, 46.1 µM	40.3	40.8	47.8
RPMI 5 mM glucose + 10% FBS, 0.000781 µM	107	97	95.5
RPMI 5 mM glucose + 10% FBS, 0.00234 µM	98.1	99.2	105
RPMI 5 mM glucose + 10% FBS, 0.00702 µM	91.4	101	110
RPMI 5 mM glucose + 10% FBS, 0.0211 µM	95.3	99.1	100
RPMI 5 mM glucose + 10% FBS, 0.0632 µM	101	95.2	92.8
RPMI 5 mM glucose + 10% FBS, 0.19 µM	97.5	92.7	95.4
RPMI 5 mM glucose + 10% FBS, 0.569 µM	98.6	81.8	77.6
RPMI 5 mM glucose + 10% FBS, 1.71 µM	83.8	47.2	40.4
RPMI 5 mM glucose + 10% FBS, 5.12 µM	34.8	26.6	32.7
RPMI 5 mM glucose + 10% FBS, 15.4 µM	83.8	74.2	28.2
RPMI 5 mM glucose + 10% FBS, 46.1 µM	83.9	50	52
RPMI 5 mM glucose + 10% dialyzed FBS, 0.000781 µM	99.3	95.5	83.6
RPMI 5 mM glucose + 10% dialyzed FBS, 0.00234 µM	103	94.6	98.8
RPMI 5 mM glucose + 10% dialyzed FBS, 0.00702 µM	94.1	92.9	103
RPMI 5 mM glucose + 10% dialyzed FBS, 0.0211 µM	107	96.4	117
RPMI 5 mM glucose + 10% dialyzed FBS, 0.0632 µM	89.3	103	115
RPMI 5 mM glucose + 10% dialyzed FBS, 0.19 µM	93	91.1	109
RPMI 5 mM glucose + 10% dialyzed FBS, 0.569 µM	90.9	82	79.3
RPMI 5 mM glucose + 10% dialyzed FBS, 1.71 µM	65.3	49.3	52
RPMI 5 mM glucose + 10% dialyzed FBS, 5.12 µM	31.9	33.9	45.8
RPMI 5 mM glucose + 10% dialyzed FBS, 15.4 µM	74.1	73.9	37.7
RPMI 5 mM glucose + 10% dialyzed FBS, 46.1 µM	72.9	76.7	52.1

AUC of viability dose-response curve
Conditions	NOMO1 [4]	P12-Ichikawa [5]	SEM cells [6]
HPLM + 10% dialyzed FBS	372	365	343
RPMI 5 mM glucose + 10% FBS	426	377	363
RPMI 5 mM glucose + 10% dialyzed FBS	402	388	374
